Here are results for 21 molecules from patent publication US20250268903A1, “RXFP1 AGONISTS” (BRISTOL-MYERS SQUIBB COMPANY, priority 2021, published 2025).

In the assay the target is T1, human RXFP1 (Homo sapiens, UniProt Q9HBX9).
T1 construct: expressed in transfected cells
T1 sequence (Q9HBX9 1-757): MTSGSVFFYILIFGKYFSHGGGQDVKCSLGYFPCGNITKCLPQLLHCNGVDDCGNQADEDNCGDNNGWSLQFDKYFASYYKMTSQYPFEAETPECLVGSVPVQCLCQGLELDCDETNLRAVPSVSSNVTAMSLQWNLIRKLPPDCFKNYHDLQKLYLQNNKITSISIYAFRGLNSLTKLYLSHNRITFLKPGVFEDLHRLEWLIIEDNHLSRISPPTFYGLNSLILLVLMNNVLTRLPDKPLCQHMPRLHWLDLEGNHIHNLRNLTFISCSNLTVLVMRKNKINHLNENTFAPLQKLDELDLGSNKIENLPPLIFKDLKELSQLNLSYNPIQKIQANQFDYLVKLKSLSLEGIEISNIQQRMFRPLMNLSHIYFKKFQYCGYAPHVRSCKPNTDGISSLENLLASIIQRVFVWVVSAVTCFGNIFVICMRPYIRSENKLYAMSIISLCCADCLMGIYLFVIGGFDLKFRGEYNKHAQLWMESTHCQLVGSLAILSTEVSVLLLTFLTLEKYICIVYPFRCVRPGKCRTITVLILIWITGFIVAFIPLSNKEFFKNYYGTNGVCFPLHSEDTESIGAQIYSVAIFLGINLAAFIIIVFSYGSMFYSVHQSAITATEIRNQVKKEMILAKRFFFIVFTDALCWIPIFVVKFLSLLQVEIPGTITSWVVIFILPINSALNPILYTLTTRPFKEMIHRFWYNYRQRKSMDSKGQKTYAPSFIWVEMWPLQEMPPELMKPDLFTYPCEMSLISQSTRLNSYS
The experiment in a line: hRXFP1 HEK293 cAMP assay (HTRF). Format: cell-based. The note with it: HEK293 cells stably expressing human RXFP1, 30 min at room temperature. In a few lines:
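In a stable human RXFP1 HEK293 line, compounds acted for 30 min at RT in buffer with 0.5 mM IBMX. HTRF then quantified cellular cAMP.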

Molecule “(1R,4R,7Z)-7-(2- cyclobutylethylidene)- N-[4-fluoro-3- (trifluoromethyl) phenyl]-3-[5-(3- hydroxy-3- methylbutyl)-2- methoxybenzamido] bicyclo[2.2.1] heptane- 2-carboxamide [Example 265]” showed a concentration giving a half-maximal response (EC50) of 0.0662 µM.

`COc1ccc(/C=C/C(=O)N2CCC(C(F)(F)F)CC2)cc1C(=O)N[C@H]1[C@@H](C(=O)Nc2ccc(F)c(C(F)(F)F)c2)[C@H]2CC[C@@H]1/C2=C\C1CC1` [Example 315] gave an EC50 of 0.0912 µM.

For `COc1ccc(CCCO)cc1C(=O)NC1C2CCC(/C2=C/C2CCCC2)[C@@H]1C(=O)Nc1ccc(F)c(C(F)(F)F)c1` (stereo partly drawn) [Example 167, (7Z)-7-(cyclopentylmethyli-dene)-N-[4-fluoro-3-(trifluoromethyl)phe-nyl]-3-[5-(3-hydroxypropyl)-2-methoxybenzamido] bicyclo[2.2.1]heptane-2-carboxamide], the midpoint of the response, the EC50, lay at 0.011 µM.

On to `COc1ccc(C(=O)N2CCCC(CO)C2)cc1C(=O)N[C@H]1[C@@H](C(=O)Nc2ccc(F)c(C(F)(F)F)c2)[C@H]2CC[C@@H]1/C2=C\C1CC1` (stereo partly drawn) [Example 233, (1R,2S,3R,4R,7Z)-7-(cyclopropyl-methylidene)-N-[4-fluoro-3-(trifluoromethyl)phenyl]-3-[5-[3-(hydroxymethyl)piperidine-1-carbonyl]-2-methoxybenzamido} bicyclo[2.2.1] heptane-2-carboxamide], for which the half-maximal effective concentration (EC50) is 0.0657 µM.

Regarding `COc1ccc(CCC(=O)NCCO)cc1C(=O)N[C@@H]1C2CCC(/C2=C/C(F)(F)F)[C@@H]1C(=O)Nc1ccc(F)c(C(F)(F)F)c1` (stereo partly drawn) [Example 137, (2S,3R,7Z)-N-[4-fluoro-3-(trifluoromethyl)phe-nyl]-3-(5-{2-[(2-hydroxyethyl)carba-moyl]ethyl}-2-methoxybenzamido)-7-(2,2,2-trifluoroethylidene)bi-cyclo[2.2.1]heptane-2-carboxamide], the EC50 was 0.4 µM.

As to `COc1ccc(CCC(C)(C)O)cc1C(=O)NC1C2CCC(/C2=C/C2CC(F)(F)C2)[C@@H]1C(=O)Nc1ccc(F)c(C(F)(F)F)c1` (stereo partly drawn) [Example 160, (2S,3R,7Z)-7-[(3,3-difluorocyclobutyl)methylidene]-N-[4-fluoro-3-(trifluoromethyl)phe-nyl]-3-[5-(3-hydroxy-3-methylbutyl)-2-methoxybenzamido] bicyclo[2.2.1]heptane-2-carboxamide], the half-maximal effective concentration (EC50) was found to be 0.051 µM.

On to `COc1ccc(COC2CC2)cc1C(=O)N[C@@H]1C2CCC(/C2=C/C2CC2)[C@@H]1C(=O)Nc1ccc(F)c(C(F)(F)F)c1` (stereo partly drawn) [Example 19, (2S,3R,7Z)-3-[5-(cyclopropoxymethyl)-2-methoxybenzamido]-7-(cyclopropylmethyli-dene)-N-[4-fluoro-3-(trifluoromethyl)phe-nyl]bicyclo[2.2.1]hept-ane-2-carboxamide], for which the EC50 was found to be 0.125 µM.

In the case of `COc1ccc(COCC2CC(O)C2)cc1C(=O)N[C@H]1[C@@H](C(=O)Nc2ccc(F)c(C(F)(F)F)c2)[C@H]2CC[C@@H]1/C2=C\C1CC1` (stereo partly drawn) [Example 291, (1R,2S,3R,4R,7Z)-7-(cyclopropyl-methylidene)-N-[4-fluoro-3-(trifluoromethyl)phenyl]-3-(5-{[(3-hydroxycyclobutyl)methoxy]methyl}-2-methoxybenzamido) bicyclo[2.2.1] heptane-2-carboxamide], the EC50 worked out at 0.00222 µM.

The molecule `COc1ccc(CCN2CCOC2=O)cc1C(=O)NC1C2CCC(/C2=C/C(F)(F)F)[C@@H]1C(=O)Nc1ccc(F)c(C(F)(F)F)c1` (stereo partly drawn) [Example 182, (7Z)-N-[4-fluoro-3-(trifluoromethyl)phe-nyl]-3-{2-methoxy-5-[2-(2-oxo-1,3-oxazolidin-3-yl)ethyl]benzamido}-7-(2,2,2-trifluoroethylidene)bi-cyclo[2.2.1]heptane-2-carboxamide] displayed an EC50 of 0.139 µM.

`COc1ccc(C(=O)N2CC3(COC3)C2)cc1C(=O)N[C@H]1[C@@H](C(=O)Nc2ccc(F)c(C(F)(F)F)c2)[C@H]2CC[C@@H]1/C2=C\C1CC1` [Example 248, (1R,2S,3R,4R,7Z)-7-(cyclopropylmethyl-idene)-N-[4-fluoro-3-(trifluoromethyl)phenyl]-3-(2-methoxy-5-{2-oxa-6-azaspiro[3.3]heptane-6-carbonyl}benzamido) bicyclo[2.2.1]heptane-2-carboxamide] yielded an EC50 of 0.128 µM.

In turn, `COc1ccc(S(=O)(=O)N2CCS(=O)(=O)CC2)cc1C(=O)N[C@H]1[C@@H](C(=O)Nc2ccc(F)c(C(F)(F)F)c2)[C@H]2CC[C@@H]1/C2=C\C1CC1` [Example 222, (1R,2S,3R,4R,7Z)-7-(cyclopropylmethylidene)-3-{5-[(1,1-dioxo-1λ^6-thiomorpholin-4-yl)sulfonyl]-2-methoxybenzamido}-N-[4-fluoro-3-(trifluoromethyl)phenyl]bicyclo[2.2.1] heptane-2-carboxamide] registered an EC50 of 0.0849 µM.

Turning to `COc1ccc(S(=O)(=O)N2CCC(CCO)CC2)cc1C(=O)N[C@H]1[C@@H](C(=O)Nc2ccc(F)c(C(F)(F)F)c2)[C@H]2CC[C@@H]1/C2=C\C(F)(F)F` [Example 219, (1R,2S,3R,4R,7Z)-N-[4-fluoro-3-(trifluoromethyl)phenyl]-3-(5-{[4-(2-hydroxyethyl)piperidin-1-yl]sulfonyl}-2-methoxybenzamido)-7-(2,2,2-trifluoroethylidene) bicyclo[2.2.1]heptane-2-carboxamide], the half-maximal effective concentration (EC50) amounted to 0.317 µM.

As to `COc1ccc(C2CCC(O)CC2)cc1C(=O)NC1C2CCC(/C2=C/C(F)(F)F)[C@@H]1C(=O)Nc1ccc(F)c(C(F)(F)F)c1` (single isomer, unassigned) [Example 53], the EC50 worked out at 0.396 µM.

In turn, `COc1ccc(C(=O)N2CC3CCC(C2)O3)cc1C(=O)N[C@H]1[C@@H](C(=O)Nc2ccc(F)c(C(F)(F)F)c2)[C@H]2CC[C@@H]1/C2=C\C1CC1` [Example 259, (1R,2S,3R,4R,7Z)-7-(cyclopropylmethylidene)-N-[4-fluoro-3-(trifluoromethyl)phenyl]-3-(2-methoxy-5-{8-oxa-3-azabicyclo[3.2.1]octane-3-carbonyl}benzamido) bicyclo[2.2.1] heptane-2-carboxamide] had an EC50 of 0.367 µM.

Molecule `COc1ccc(S(=O)(=O)N2CCN(C)CC2CO)cc1C(=O)N[C@H]1[C@@H](C(=O)Nc2ccc(F)c(C(F)(F)F)c2)[C@H]2CC[C@@H]1/C2=C\C(F)(F)F` (stereo partly drawn) [Example 218] gave an EC50 of 0.714 µM.

Turning to `COc1ccc(CCCn2cc(-c3ccccc3)nn2)cc1C(=O)N[C@@H]1C2CCC(/C2=C/C(F)(F)F)[C@@H]1C(=O)Nc1ccc(F)c(C(F)(F)F)c1` (stereo partly drawn) [Example 123], it took 1.27 µM to reach a half-maximal effect (EC50).

For the molecule `COc1ccc(CCC(C)(C)O)cc1C(=O)NC1C2CCC(/C2=C/C2CCOC2)[C@@H]1C(=O)Nc1ccc(F)c(C(F)(F)F)c1` (stereo partly drawn) [Example 169, (7Z)-N-[4-fluoro-3-(trifluoromethyl)phe-nyl]-3-[5-(3-hydroxy-3-methylbutyl)-2-methoxybenzamido]-7-[(oxolan-3-yl)methylidene]bicy-clo[2.2.1]heptane-2-carboxamide], the response was half-maximal at 0.102 µM (EC50).

Turning to `COc1ccc(/C=C/C(=O)N2CC(O)C2)cc1C(=O)N[C@H]1[C@@H](C(=O)Nc2ccc(F)c(C(F)(F)F)c2)[C@H]2CC[C@@H]1/C2=C\C(F)(F)F` [Example 314], the EC50 was found to be 0.0662 µM.

Molecule `COc1cc(CN2C(=O)CNC2=O)ccc1C(=O)N[C@@H]1C2CCC(/C2=C/C2CC2)[C@@H]1C(=O)Nc1ccc(F)c(C(F)(F)F)c1` (stereo partly drawn) [Example 25, (2S,3R,7Z)-7-(cyclopropylmethyli-dene)-3-{4-[(2,5-dioxoimidazolidin-1-yl)methyl]-2-methoxybenzamido}-N-[4-fluoro-3-(trifluoromethyl)phe-nyl]bicyclo[2.2.1] heptane-2-carboxamide] registered an EC50 of 2.04 µM.

`COc1ccc(CCC(=O)NCC(F)(F)F)cc1C(=O)NC1C2CCC(/C2=C/C(F)(F)F)[C@@H]1C(=O)Nc1ccc(F)c(C(F)(F)F)c1` (stereo partly drawn) [Example 141, (2S,3R,7Z)-N-[4-fluoro-3-(trifluoromethyl)phe-nyl]-3-(2-methoxy-5-{2-[(2,2,2-trifluoroethyl)carba-moyl]ethyl}benzami-do)-7-(2,2,2-trifluoroethylidene)bi-cyclo[2.2.1]heptane-2-carboxamide] gave an EC50 of 0.829 µM.

On to `COc1ccc(COC2C[C@@H](O)[C@@H](O)C2)cc1C(=O)N[C@H]1[C@@H](C(=O)Nc2ccc(F)c(C(F)(F)F)c2)[C@H]2CC[C@@H]1/C2=C\C1CC1` (stereo partly drawn) [Example 297, (1R,2S,3R,4R,7Z)-7-(cyclopropylmethylidene)-3-[5-({[(3R,4S)-3,4-dihydroxycyclopentyl]oxy}methyl)-2-methoxybenzamido]-N-[4-fluoro-3-(trifluoromethyl)phenyl]bicyclo[2.2.1]heptane-2-carboxamide], for which a half-maximal response (EC50) required 0.0083 µM.
